Laboratory results as given in PMC12892976, “Alkylation-based optimization of antifungal FPPS inhibitors yields a potent, broad-spectrum lipophilic zoledronate derivative” (mBio, 2025).
Values after ≈ are worked out from the molar mass of the structure shown.

What was measured:
[1] = test system: Cryptococcus bacillisporus; experiment: MIC broth microdilution (CLSI); type: cell-based; conditions: Cryptococcus bacillisporus NIH179
Method: (§1) Antifungal susceptibility was determined by broth microdilution according to the CLSI guidelines described in M27-Ed4 ([16]).

Saccharomyces cerevisiae [2] = experiment: MIC/MFC broth microdilution (CLSI); type: cell-based; conditions: Saccharomyces cerevisiae S288c
Method: (§2) Antifungal susceptibility was determined by broth microdilution according to the CLSI guidelines described in M27-Ed4 ([16]). […] MFC was determined by back-plating drug-treated cultures from MIC broths onto SDA plates. The MFC was defined as the lowest concentration from which no colonies could be cultured.

Candida albicans [3] = experiment: MIC/MFC broth microdilution (CLSI); type: cell-based; conditions: Candida albicans SC5314
Method: as §2

Aspergillus terreus = experiment: MIC broth microdilution (CLSI); type: cell-based; conditions: Aspergillus terreus 75-16-089-2500
Method: as §1

Aspergillus felis = experiment: MIC broth microdilution (CLSI); type: cell-based; conditions: Aspergillus felis IHE87256683D6
Method: as §1

[4] = test system: Cryptococcus deuterogattii; experiment: checkerboard drug interaction (FICI, MICc); type: cell-based;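 also: simplified diagonal checkerboard screen pairing antifungal drugs with FPPS inhibitors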
Method: (§3) Drug interactions between antifungals and FPPS inhibitors were investigated using a simplified checkerboard diagonal screening method ([45]). […] FICIs were determined according to the Loewe additivity model ([17]).

Cryptococcus neoformans [5] = experiment: checkerboard drug interaction (FICI, MICc); type: cell-based;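 also: antifungal plus FPPS inhibitor pairs tested against Cryptococcus neoformans by simplified diagonal checkerboard screening, FICI computed under the Loewe additivity model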
Method: as §3

Saccharomyces cerevisiae [6] = experiment: checkerboard drug interaction (FICI, MICc); type: cell-based;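 also: simplified diagonal checkerboard screen pairing antifungals with FPPS inhibitors, FICI calculated under the Loewe additivity model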
Method: as §3

Candida glabrata [7] = experiment: checkerboard drug interaction (FICI, MICc); type: cell-based;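 also: simplified diagonal checkerboard screen pairing antifungals with FPPS inhibitors, FICI calculated under the Loewe additivity model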
Method: as §3

Candida albicans [8] = experiment: checkerboard drug interaction (FICI, MICc); type: cell-based;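 also: antifungal plus FPPS inhibitor combinations on Candida albicans tested by a simplified diagonal checkerboard screen, with FICI calculated under the Loewe additivity model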
Method: as §3

Aspergillus flavus [9] = experiment: checkerboard drug interaction (FICI, MICc); type: cell-based;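 also: simplified diagonal checkerboard screen pairing azole antifungals with FPPS inhibitors, FICI calculated under the Loewe additivity model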
Method: as §3

Aspergillus fumigatus [10] = experiment: checkerboard drug interaction (FICI, MICc); type: cell-based;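 also: simplified diagonal checkerboard screen pairing antifungals with FPPS inhibitors against Aspergillus fumigatus, with FICI calculated under the Loewe additivity model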
Method: as §3

Trichophyton rubrum [11] = experiment: checkerboard drug interaction (FICI, MICc); type: cell-based;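 also: simplified diagonal checkerboard screen pairing azole antifungals with FPPS inhibitors, FICI calculated under the Loewe additivity model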
Method: as §3

[12] = test system: Cryptococcus deuterogattii; experiment: MIC/MFC broth microdilution (CLSI); conditions: for MIC / MEC: Cryptococcus deuterogattii R265;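 as to all read-outs here: broth microdilution per CLSI M27-Ed4. MFC is the lowest concentration yielding no colonies when MIC broths are subcultured onto SDA plates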
Method: as §2

Cryptococcus neoformans [13] = experiment: MIC/MFC broth microdilution (CLSI); conditions: for MIC / MEC: Cryptococcus neoformans H99;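 as to all read-outs here: susceptibility testing followed the CLSI M27-Ed4 broth microdilution document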
Method: as §2

Candida glabrata [14] = experiment: MIC/MFC broth microdilution (CLSI); conditions: for MIC / MEC: Candida glabrata CBS138 (ATCC 2001);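 as to all read-outs here: broth microdilution following CLSI M27-Ed4, MFC taken as the lowest drug level yielding no growth once MIC wells were subcultured on SDA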
Method: as §2

Aspergillus flavus [15] = experiment: MIC/MFC broth microdilution (CLSI); conditions: ATCC204304
Method: as §2

Aspergillus fumigatus [16] = experiment: MIC/MFC broth microdilution (CLSI); conditions: ATCC204305
Method: as §2

Trichophyton rubrum [17] = experiment: MIC/MFC broth microdilution (CLSI); conditions: for MIC / MEC: Trichophyton rubrum R-218
Method: as §2

SMILES | MIC / MEC [1] | MIC / MEC (Saccharomyces cerevisiae [2]) | MIC / MEC (Candida albicans [3]) | MIC / MEC (Aspergillus terreus) | antifungal MICc ([4]; in combination with 10-ZOL) | antifungal MICc ([4]; in combination with ZOL) | antifungal MICc (Cryptococcus neoformans [5]; in combination with 10-ZOL) | antifungal MICc (Cryptococcus neoformans [5]; in combination with ZOL) | antifungal MICc (Saccharomyces cerevisiae [6]; in combination with 10-ZOL) | antifungal MICc (Saccharomyces cerevisiae [6]; in combination with ZOL) | antifungal MICc (Candida glabrata [7]; in combination with 10-ZOL) | antifungal MICc (Candida glabrata [7]; in combination with ZOL) | antifungal MICc (Candida albicans [8]; in combination with 10-ZOL) | antifungal MICc (Candida albicans [8]; in combination with ZOL) | antifungal MICc (Aspergillus flavus [9]; in combination with 10-ZOL) | antifungal MICc (Aspergillus flavus [9]; in combination with ZOL) | antifungal MICc (Aspergillus fumigatus [10]; in combination with 10-ZOL) | antifungal MICc (Aspergillus fumigatus [10]; in combination with ZOL) | antifungal MICc (Trichophyton rubrum [11]; in combination with 10-ZOL) | antifungal MICc (Trichophyton rubrum [11]; in combination with ZOL) | also measured
C[C@@H](c1ncncc1F)[C@](O)(Cn1cncn1)c1ccc(F)cc1F [VOR] | 0.06 µg/mL (≈ 0.172 µM) | 0.5 µg/mL (≈ 1.43 µM) | 0.13 µg/mL (≈ 0.372 µM) | 0.25 µg/mL (≈ 0.716 µM) | 0.125 | 0.063 | 0.063 | 0.0625 | 0.25 | 0.25 | 0.25 | 0.0625 | 0.063 | 0.125 | 0.06 | 0.25 | 0.25 | 2 | 0.25 | 0.25 | MIC / MEC (Aspergillus felis): 2 µg/mL (≈ 5.73 µM); MIC / MEC [12]: 0.25 µg/mL (≈ 0.716 µM); MIC / MEC (Cryptococcus neoformans [13]): 0.13 µg/mL (≈ 0.372 µM); MIC / MEC (Candida glabrata [14]): 0.25 µg/mL (≈ 0.716 µM); MIC / MEC (Aspergillus flavus [15]): 0.5 µg/mL (≈ 1.43 µM); MIC / MEC (Aspergillus fumigatus [16]): 0.5 µg/mL (≈ 1.43 µM); MIC / MEC (Trichophyton rubrum [17]): 1 µg/mL (≈ 2.86 µM)
OC(Cn1cncn1)(Cn1cncn1)c1ccc(F)cc1F [FLC, fluconazole] | 1 µg/mL (≈ 3.27 µM) | 4 µg/mL (≈ 13.1 µM) | 0.5 µg/mL (≈ 1.63 µM) | 64 µg/mL (≈ 209 µM) | 2 | 4 | 2 | 4 | 1 | 1 | 1 | 0.25 | 1 | 2 | 32 | 64 | 8 | 64 | 8 | 16 | MFC (Saccharomyces cerevisiae [2]): 64 µg/mL (≈ 209 µM); MIC (Saccharomyces cerevisiae [2]): 4 µg/mL (≈ 13.1 µM); MFC (Candida albicans [3]): 4 µg/mL (≈ 13.1 µM); MIC (Candida albicans [3]): 0.5 µg/mL (≈ 1.63 µM); effective concentration in combination (Aspergillus fumigatus [10]; FLC with 10-ZOL added, A. fumigatus): 8 µg/mL; MIC ([12]; Cryptococcus deuterogattii): 2 µg/mL (≈ 6.53 µM); MIC / MEC [12]: 4 µg/mL (≈ 13.1 µM); MIC (Cryptococcus neoformans [13]; Cryptococcus neoformans): 2 µg/mL (≈ 6.53 µM); MIC / MEC (Cryptococcus neoformans [13]): 4 µg/mL (≈ 13.1 µM); MIC / MEC (Candida glabrata [14]): 4 µg/mL (≈ 13.1 µM); MIC (Candida glabrata [14]; Nakaseomyces glabratus, CBS138): 4 µg/mL (≈ 13.1 µM); MIC (Aspergillus flavus [15]): 64 µg/mL (≈ 209 µM); MIC (Trichophyton rubrum [17]; Trichophyton rubrum): 64 µg/mL (≈ 209 µM); MIC / MEC (Trichophyton rubrum [17]): 64 µg/mL (≈ 209 µM)
C[C@@H]1[C@H](O)[C@@H](C)/C=C/C=C/C=C/C=C/C=C/C=C/C=C/[C@H](O[C@@H]2O[C@H](C)[C@@H](O)[C@H](N)[C@@H]2O)C[C@@H]2O[C@](O)(C[C@@H](O)C[C@@H](O)[C@H](O)CC[C@@H](O)C[C@@H](O)CC(=O)O[C@H]1C)C[C@H](O)[C@H]2C(=O)O [AMB, amphotericin B] | 0.25 µg/mL (≈ 0.271 µM) | 0.25 µg/mL (≈ 0.271 µM) | 0.25 µg/mL (≈ 0.271 µM) | 1 µg/mL (≈ 1.08 µM) | 0.25 | 0.25 | 0.5 | 0.5 | 0.25 | 0.5 | 0.5 | 0.125 | 0.25 | 0.25 | 0.5 | 0.25 | 0.125 | 0.25 | 0.5 | 2 | MIC / MEC (Aspergillus felis): 4 µg/mL (≈ 4.33 µM); MIC / MEC [12]: 0.25 µg/mL (≈ 0.271 µM); MIC / MEC (Cryptococcus neoformans [13]): 0.25 µg/mL (≈ 0.271 µM); MIC / MEC (Candida glabrata [14]): 0.25 µg/mL (≈ 0.271 µM); MIC / MEC (Aspergillus flavus [15]): 0.5 µg/mL (≈ 0.541 µM); MIC / MEC (Aspergillus fumigatus [16]): 0.25 µg/mL (≈ 0.271 µM); MIC / MEC (Trichophyton rubrum [17]): 1 µg/mL (≈ 1.08 µM)
